Data as given in article PMC6749236, “Synthesis of Novel 2-(Het)arylpyrrolidine Derivatives and Evaluation of Their Anticancer and Anti-Biofilm Activity” (Molecules, 2019).

How the values were obtained:
M-Hela = assay: Cytotoxicity assay (Cytell Cell Imaging, DAPI/propidium iodide), cancer cell line; format: cell-based; details: Homo sapiens, M-HeLa, read-out: IC50 Cancer Cell Line M-Hela
Chang liver cell line = assay: Cytotoxicity assay (Cytell Cell Imaging), normal cell line; format: cell-based; details: Homo sapiens, read-out: IC50 Normal Cell Line Chang Liver

| SMILES | IC50 (M-Hela) | IC50 (Chang liver cell line) | melting point |
| --- | --- | --- | --- |
| Cc1cc(O)c(C2CCCN2C(=O)NC2CCCCC2)c(=O)o1 (stereo not drawn) [7g, N-Cyclohexyl-2-(4-hydroxy-6-methyl-2-oxo-2H-pyran-3-yl)pyrrolidine-1-carboxamide] | > 100 µM | > 100 µM | 184 to 185 °C |
| O=C(Nc1ccc(F)cc1)N1CCCC1c1c(O)c2ccccc2oc1=O (stereo not drawn) [8e, N-(4-Fluorophenyl)-2-(4-hydroxy-2-oxo-2H-chromen-3-yl)pyrrolidine-1-carboxamide] | > 100 µM | > 100 µM | 165 °C |
| O=C(Nc1ccc(F)cc1)N1CCCC1c1cc2c(cc1O)OCO2 (stereo not drawn) [5e, N-(4-Fluorophenyl)-2-(6-hydroxybenzo[d][1,3]dioxol-5-yl)pyrrolidine-1-carboxamide] | > 100 µM | > 100 µM | 184 to 185 °C |
| Cc1cc(O)c(C2CCCN2C(=O)Nc2ccc(F)cc2)c(=O)o1 (stereo not drawn) [7e, N-(4-Fluorophenyl)-2-(4-hydroxy-6-methyl-2-oxo-2H-pyran-3-yl)pyrrolidine-1-carboxamide] | > 100 µM | > 100 µM | 177 to 178 °C |
| Cc1cc(O)c(C2CCCN2C(=O)Nc2ccccc2)c(=O)o1 (stereo not drawn) [7b, 2-(4-Hydroxy-6-methyl-2-oxo-2H-pyran-3-yl)-N-phenylpyrrolidine-1-carboxamide] | > 100 µM | > 100 µM | 190 to 191 °C |
| O=C(NC1CCCCC1)N1CCCC1c1c(O)c2ccccc2oc1=O (stereo not drawn) [8g, N-Cyclohexyl-2-(4-hydroxy-2-oxo-2H-chromen-3-yl)pyrrolidine-1-carboxamide] | > 100 µM | > 100 µM | 166 to 167 °C |
| O=C(Nc1ccc(Br)cc1)N1CCCC1c1c(O)c2ccccc2oc1=O (stereo not drawn) [8d, N-(4-Bromophenyl)-2-(4-hydroxy-2-oxo-2H-chromen-3-yl)pyrrolidine-1-carboxamide] | > 100 µM | > 100 µM | 179 °C |
| O=C(NC1CCCCC1)N1CCCC1c1cc2c(cc1O)OCO2 (stereo not drawn) [5g, N-Cyclohexyl-2-(6-hydroxybenzo[d][1,3]dioxol-5-yl)pyrrolidine-1-carboxamide] | > 100 µM | > 100 µM | 159 to 160 °C |
| CCCCCCNC(=O)N1CCCC1c1cc2c(cc1O)OCO2 (stereo not drawn) [5f, N-Hexyl-2-(6-hydroxybenzo[d][1,3]dioxol-5-yl)pyrrolidine-1-carboxamide] | > 100 µM | > 100 µM | 91 to 93 °C |
| NC(=O)N1CCCC1c1cc2c(cc1O)OCO2 (stereo not drawn) [5a, 2-(6-Hydroxybenzo[d][1,3]dioxol-5-yl)pyrrolidine-1-carboxamide] | > 100 µM | > 100 µM | 206 to 207 °C |
| COc1ccc(NC(=O)N2CCCC2c2c(O)c3ccccc3oc2=O)cc1 (stereo not drawn) [8c, 2-(4-Hydroxy-2-oxo-2H-chromen-3-yl)-N-(4-methoxyphenyl)pyrrolidine-1-carboxamide] | > 100 µM | > 100 µM | 152 to 153 °C |
| O=C(Nc1ccc(Br)cc1)N1CCCC1c1cc2c(cc1O)OCO2 (stereo not drawn) [5d, N-(4-Bromophenyl)-2-(6-hydroxybenzo[d][1,3]dioxol-5-yl)pyrrolidine-1-carboxamide] | > 100 µM | > 100 µM | 164 °C |
| CCCCCCNC(=O)N1CCCC1c1ccc(Nc2c([N+](=O)[O-])c(Cl)cc3c2no[n+]3[O-])cc1O (stereo not drawn) [6f, 6-Chloro-4-((4-(1-(hexylcarbamoyl)pyrrolidin-2-yl)-3-hydroxyphenyl)amino)-5-nitrobenzo[c][1,2,5]oxadiazole 1-oxide] | 47 ± 2.9 µM | 57 ± 4.3 µM | 121 to 122 °C (dec.) |
| O=C(Nc1ccccc1)N1CCCC1c1c(O)c2ccccc2oc1=O (stereo not drawn) [8b, 2-(4-Hydroxy-2-oxo-2H-chromen-3-yl)-N-phenylpyrrolidine-1-carboxamide] | > 100 µM | > 100 µM | 179 to 180 °C |
| COc1ccc(NC(=O)N2CCCC2c2c(O)cc(C)oc2=O)cc1 (stereo not drawn) [7c, 2-(4-Hydroxy-6-methyl-2-oxo-2H-pyran-3-yl)-N-(4-methoxyphenyl)pyrrolidine-1-carboxamide] | > 100 µM | > 100 µM | 168 to 169 °C |
| COc1ccc(NC(=O)N2CCCC2c2cc3c(cc2O)OCO3)cc1 (stereo not drawn) [5c, 2-(6-Hydroxybenzo[d][1,3]dioxol-5-yl)-N-(4-methoxyphenyl)pyrrolidine-1-carboxamide] | > 100 µM | > 100 µM | 112 to 114 °C |
| CCCCCCNC(=O)N1CCCC1c1c(O)cc(C)oc1=O (stereo not drawn) [7f, N-Hexyl-2-(4-hydroxy-6-methyl-2-oxo-2H-pyran-3-yl)pyrrolidine-1-carboxamide] | > 100 µM | > 100 µM | 137 to 138 °C |
